The test system of experiment [1] is WI-38 non-senescent cells (NCs). Description: Cell viability assay (flow cytometry, PI). The format is cell-based, human. The note with it: for EC50: Homo sapiens, WI-38, 72 h. On the procedure: (§1) Human WI-38 fibroblasts (WI-38, Cat. No. CCL-75), human IMR-90 fibroblasts (IMR-90, Cat. No. CCL-186), human umbilical vein endothelial cells (HUVEC, Cat. No. CRL-1730), human renal epithelial cells (HREC, Cat. No. PCS-400-012) and human pre-adipocytes (Cat. No. PCS-210-010) were newly purchased from the American Type Culture Collection (ATCC, Manassas, VA, USA). WI-38 and IMR-90 cells were cultured in complete Dulbecco’s modified Eagle medium (DMEM, Cat. No. 12430054, Thermo Fisher Scientific, Waltham, MA, USA) supplemented with 10% heat-inactivated fetal bovine serum (FBS, Cat. No. S11150H, Atlanta Biologicals, Flowery Branch, GA, USA), 100 U/mL penicillin and 100 µg/mL streptomycin (Pen Strep, Cat. No. 15140122, Thermo Fisher Scientific, Waltham, MA, USA) in a humidified incubator at 37°C and 5% CO2. HUVEC were cultured in EGM-2 BulletKit (Cat. No. CC-3162, Lonza, Basel, Switzerland) containing basal medium supplemented with growth factors, cytokines and other supplements according to the manufacturer’s protocol. HREC were cultured in renal epithelial cell basal medium (Cat. No. PCS-400-030, ATCC, Manassas, VA, USA) supplemented with renal epithelial cell growth kit (Cat. No. PCS400040, ATCC, Manassas, VA, USA). Human pre-adipocytes were cultured in fibroblast basal medium (Cat. No. PCS-201-030, ATCC, Manassas, VA, USA) supplemented with fibroblast growth kit-low serum (Cat. No. PCS201041, ATCC, Manassas, VA, USA). EF24 (Cat. No. E8409) and HO-3867 (Cat. No. S7501) were purchased from Sigma-Aldrich (St. Louis, MO, USA) and Selleckchem (Houston, TX, USA), respectively. DIMC (Cat. No. 10009986) and 2-HBA (Cat. No. 11879) were both purchased from Cayman Chemical (Ann Arbor, MI, USA).
(§2) Three different methods were used for the induction of SCs, including replicative exhaustion, ionizing radiation and ectopic Ras expression as previously described. Briefly, low-passage WI-38 cells (< 25 passages), IMR-90 cells (< 25 passages), HUVEC (< 10 passages), HREC (< 10 passages) and pre-adipocytes (< 4 passages) were used as NCs or for the induction of senescence. To induce replicative senescence (Rep-SCs), WI-38 and IMR-90 fibroblasts, HUVEC, HREC and pre-adipocytes were subcultured until they stopped to divide and became permanently growth arrested senescence after 38 passages (WI-38), 38 passages (IMR-90), 22 passages (HUVEC), 30 passages (HREC) and 10 passages (pre-adipocytes), respectively. To induce SCs by ionizing radiation (IR-SCs) and ectopic expression of Ras (Ras-SCs), WI-38 NCs were treated as previously described.
(§3) Number of viable cells were quantified using flow cytometry as previously described with slight modifications. Specifically, NCs and SCs were incubated with vehicle (0.1% DMSO) or a test compound at indicated concentrations for 72 h. Following dissociation with 0.25% Trypsin-EDTA (Cat. No. 25200056, Thermo Fisher Scientific, Waltham, MA, USA) at 37°C for 5 min, the cells were harvested in 100 µl pre-cooled phosphate buffered saline (PBS, Cat. No. 20012027, Thermo Fisher Scientific, Waltham, MA, USA) containing 2% FBS and 100 ng/mL propidium iodide (PI, P4170, Sigma-Aldrich, St. Louis, MO, USA) and analyzed using flow cytometry (LSR II, BD Biosciences, San Jose, CA, USA). Percentage of viable cells were determined by counting the number of PI negative cells (viable cells) and then calculated as a ratio of control cells treated with vehicle. In addition, dose-response curves were generated for each compound, and the concentration for 50% of maximal effect (EC50 values) was calculated using GraphPad Prism 6.
A general note: In flow cytometry, cells or beads pass a laser one at a time.

The subject of experiment [2] is WI-38 IR-induced senescent cells (IR-SCs). Description: Cell viability assay (flow cytometry, PI). It counts as cell-based, human. To be noted: WI-38, 72 h; for EC50: Homo sapiens. On the procedure:
as §1, §2, §3

The subject of experiment [3] is WI-38 Ras-induced senescent cells (Ras-SCs). The experiment is described as follows: Cell viability assay (flow cytometry, PI). The format is cell-based, human. The note with it: 72 h. The procedure:
as §1, §2, §3

For experiment [4], the system named is HREC IR-SCs. The experiment is described as follows: Cell viability assay (flow cytometry, PI). The format is cell-based. To be noted: Homo sapiens, 72 h.
Experiment [5] deals with WI-38 IR-SCs. The experiment is described as follows: Apoptosis analysis (Annexin-V/PI flow cytometry). To be noted: 2 µM, 72 h. The format is cell-based, human. On the procedure:
WI-38 NCs and SCs were treated with vehicle or 10 µM Q-VD-OPh (QVD, Cat. No. S7311, Selleckchem, Houston, TX, USA) for 4 h prior to the addition of vehicle or 2 µM EF24 for 72 h. The suspending cells were first harvested from the culture and then pooled with the adherent cells detached by 0.25% Trypsin-EDTA at 37°C for 5 min in 12 × 75 mm polystyrene round-bottom tubes (Cat. No. 352058, Falcon, Corning, NY, USA) containing complete DMEM medium. The cells were stained with Alexa Fluor 647-Annexin V (1: 50, Cat. No. 640912, BioLegend, San Diego, CA, USA) and PI (10 µg/mL, Cat. No. 421301, BioLegend, San Diego, CA, USA) at room temperature for 30 min. The stained cells were analyzed using a BD LSR II flow cytometer.

The test system of experiment [6] is HREC Rep-SCs. The experiment is described as follows: Cell viability assay (flow cytometry, PI). It counts as cell-based. The note with it: Homo sapiens, 72 h. The procedure: as §1, §2, §3
In experiment [7] the test system is IMR-90 fibroblasts NCs. The experiment is described as follows: Cell viability assay (flow cytometry, PI). The format is cell-based. To be noted: Homo sapiens, IMR-90, 72 h. On the procedure: as §1, §2, §3
Experiment [8] concerns WI-38 replication-exhausted senescent cells (Rep-SCs). Description: Cell viability assay (flow cytometry, PI). It counts as cell-based. The note with it: Homo sapiens; WI-38, 72 h, Table 2. On the procedure:
as §1, §2, §3

Experiment [9] concerns pre-adipocytes Rep-SCs. Description: Cell viability assay (flow cytometry, PI). The format is cell-based. The note with it: Homo sapiens; Pre-adipocyte, 72 h. On the procedure:
as §1, §2, §3

In experiment [10] the test system is pre-adipocytes NCs. Description: Cell viability assay (flow cytometry, PI). The format is cell-based. The note with it: Homo sapiens; Pre-adipocyte, 72 h. On the procedure: as §1, §2, §3
In experiment [11] the test system is HUVEC Rep-SCs. The experiment is described as follows: Cell viability assay (flow cytometry, PI). The format is cell-based. The note with it: Homo sapiens, 72 h. The procedure: as §1, §2, §3
Experiment [12] relates to IMR-90 fibroblasts Rep-SCs. Description: Cell viability assay (flow cytometry, PI). It counts as cell-based. The note with it: Homo sapiens, IMR-90, 72 h. The procedure:
as §1, §2, §3

Experiment [13] relates to HUVEC NCs. The experiment is described as follows: Cell viability assay (flow cytometry, PI). It counts as cell-based. The note with it: Homo sapiens, 72 h. The procedure:
as §1, §2, §3

Experiment [14] relates to HREC NCs. The experiment is described as follows: Cell viability assay (flow cytometry, PI). It counts as cell-based. The note with it: Homo sapiens, 72 h. The procedure: as §1, §2, §3

In general, EC50 refers to the concentration at which the effect is half-maximal. As to `O=C1/C(=C/c2ccccc2F)CNC/C1=C\c1ccccc1F` [EF24], the EC50 in experiment [1] (Table 2) worked out at 4.32 µM; in experiment [1] (WI-38 NCs, 72 h, Table 1 screen of curcumin analogs), 4.69 µM; in [2] (Table 2), 1740 nM; in [2] (WI-38 IR-SCs, 72 h, Table 1 screen of curcumin analogs), 1620 nM; in [4], 1150 nM; in [6], 600 nM. Further, the EC50 in experiment [7] was determined as 10.9 µM; in experiment [8], 1260 nM; in experiment [9] it was 4.6 µM; in [10] it was 8.92 µM; in experiment [11] it was 770 nM; in [12], 330 nM. In addition, the 50% effective concentration (EC50) was 1390 nM in [13] and 3.25 µM in experiment [14]. In addition, the “effect on the cell viability of WI-38 NCs” value in experiment [1] (below 4 μM, 72 h) was “minimal effect”. Also, the “selective toxicity against IR-SCs versus NCs (viability)” value in experiment [2] is recorded as “lesser toxicities to NCs”. Further, the “sensitivity of WI-38 Ras-SCs compared with Rep-SCs and IR-SCs” value in experiment [3] is “highest sensitivity”. In experiment [5], the “number of PI positive cells representing necrotic cells in IR-SCs” value is on record as “not any significant changes”. The “number and percentage of Annexin-V positive apoptotic cells in IR-SCs” value in experiment [5] (compared to vehicle) is given as “significantly increased”.

The record behind these values is paper PMC6366974, “The curcumin analog EF24 is a novel senolytic agent” (Aging (Albany NY), 2019).
